Here are results for 32 molecules from PubChem BioAssay (NCI).

Holding throughout (experiment): NCI anticancer screen, dose series, 48 h
The subject of test [1] is TK-10 renal.
Test [2] relates to UACC-62 melanoma.
Test [3] deals with UACC-257 melanoma.
Test [4] has as its system HL-60(TB) leukemia.
In test [5] the test system is T-47D breast.
Test [6] deals with CCRF-CEM leukemia.
The test system of test [7] is HCC-2998 colon.
Test [8] concerns SK-MEL-2 melanoma.
Test [9] concerns IGROV1 ovarian.
For test [10], the system named is HOP-92 NSCLC.

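Exposure lasted 48 hours, with cells grown in 96-well plates and compounds tested at five concentrations. At the TGI there is no net growth.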 Where a SMILES comes first, the peptide text is derived from it. The star is where a group is joined. Cbz = O=C(OCc1ccccc1)*

With `CSC(=Nc1ccccc1)c1c(C)[nH]n(-c2ccccc2)c1=O`, the TGI in test [1], in test [2], in [3], in test [4], in [5] and in test [6] was greater than 100 µM in each case. Also, the TGI in [7] and in test [8] was greater than 100 µM throughout.
As to `CC1=C[C@H](C[C@]2(C)c3c(c4c(C)cccc4oc3=O)O[C@@H]2C)OC1=O`, the TGI in test [1] is greater than 100 µM; in test [2], greater than 100 µM; in [3] it was greater than 100 µM; in test [4] it was 52.5 µM; in [5], greater than 100 µM; in [9], greater than 100 µM. In addition, the TGI in [6] was 74.7 µM; in [7] it was greater than 100 µM; in [8] it was greater than 100 µM.
Consider `C[C@]12C(=O)OC[C@H](c3ccccc3)N1C(=O)N(Cc1ccccc1)[C@@H]2CO`, for which the TGI in test [1], in [2], in test [3], in [10], in [4] and in test [9] was greater than 100 µM throughout. Also, the TGI in test [6], in [7] and in test [8] was greater than 100 µM in each case.
Consider `Cc1cc2c3c(c1)S(=O)(=O)c1cc(Cl)ccc1N3CCC2`, for which the TGI in [1], in [2], in test [3], in test [10], in test [4] and in test [9] was greater than 100 µM each time. Also, the TGI in [6], in test [7] and in [8] was greater than 100 µM each time.
`CCOC(=O)CCC(NC(=O)C(CC(=O)OC)NC(=O)OCc1ccccc1)C(=O)NC(CC(=O)OC)C(=O)NC(CCC(=O)OCC)C(=O)NC(CC(=O)OC)C(=O)NC(CCC(=O)OCC)C(=O)NC(CC(=O)OCC)C(=O)OCC` (configuration not stated) (Cbz-D(OMe)E(OEt)D(OMe)E(OEt)D(OMe)E(OEt)D(OEt)-OEt; configuration not given here): the TGI in test [1], in test [2], in test [3], in test [4], in [5] and in [9] was greater than 100 µM throughout. Besides, the TGI in [6], in test [7] and in test [8] was greater than 100 µM throughout.
Regarding `CCCCCCCCCCCCCOCCOCCOCCCCC(O)CCCCCCCCCC1=C[C@H](C)OC1=O` (some centres not stated), the TGI in test [1] was 22.5 µM; in test [2], 54 µM; in [3], 37.7 µM; in test [4], 16 µM; in test [5] it was greater than 100 µM; in test [9] it was 37.6 µM. Moreover, the TGI is greater than 100 µM in test [6], 74.4 µM in test [7] and 63 µM in [8].
As for `CC(C)(C)c1ccc(O)c(C(O)c2ccccn2)c1` (configuration not stated), the TGI in test [1] was greater than 100 µM; in [2] it was 26.4 µM; in test [4], greater than 100 µM; in [5], 80.9 µM; in test [6] it was greater than 100 µM; in test [7] it was 85.9 µM.
For `CCO/C(O)=c1/s/c(=C2/SC(=S)N(c3ccc(C)cc3)C2=O)n(-c2ccccc2)c1=N`, the TGI in test [1], in test [2], in [3], in [10], in [4] and in test [9] was greater than 100 µM each time. Besides, the TGI in [6], in [7] and in [8] was greater than 100 µM in each case.
On to `Cc1cccc(C)c1NC(=S)N/C=C(\C#N)C(N)=O`, for which the TGI in test [1], in test [2], in [3], in [10], in test [9] and in [6] was greater than 100 µM in each case. In test [8], the TGI is greater than 100 µM.
Regarding `Cc1cccc(-c2cc(=O)c3cccnc3[nH]2)c1`, the TGI in test [2] is greater than 100 µM; in test [10] it was greater than 100 µM; in test [4], 0.654 µM; in test [9], greater than 100 µM; in [6], greater than 100 µM; in [7], 13.2 µM.
With `COc1ccc(/C=C2\C(=O)N(C(=O)c3ccc(NC(C)=O)cc3)N=C2C)cc1OC`, the TGI in test [1], in [3], in test [4], in [6], in [7] and in test [8] was greater than 100 µM throughout.
Take `CCN(CC)P(=O)(c1ccc2c(c1)OCCOCCOCCOCCO2)N(CC)CC`: the TGI in test [1], in test [2], in test [4], in test [5], in test [9] and in [6] was greater than 100 µM in each case. In addition, the TGI in test [7] is greater than 100 µM.
As for `COc1cc2c(c3nc4ccccc4nc13)-c1ccc(SC)c(=O)cc1[C@@H](NC(C)=O)CC2`, the TGI was greater than 100 µM in test [1]; greater than 100 µM in [2]; greater than 100 µM in [3]; greater than 75.1 µM in [10]; 0.528 µM in test [9]; greater than 100 µM in test [6]. In addition, the TGI in test [8] is greater than 100 µM.
Regarding `CN1CCN(c2n[nH]c(=O)c3c2nnn3Cc2ccccc2)CC1`, the TGI in test [1], in test [3], in test [10], in test [4], in [6] and in test [7] was greater than 100 µM each time. In test [8], this molecule had a TGI greater than 100 µM.
Consider `COC(=O)C12CCCN1CCC2`, for which the TGI in test [1], in test [2], in test [3], in test [5], in test [6] and in test [7] was greater than 100 µM in each case. Moreover, the TGI in [8] was greater than 100 µM.
In the case of `OC1C2CN3CCN(C2)CC1(c1ccccc1)C3` (configuration not stated), the TGI in test [1], in test [2], in test [3], in test [4], in test [9] and in test [8] was greater than 100 µM each time.
On to `CCOc1cc2c(cc1OC)c[n+](C)c1c3cc(OC)c(OC)cc3ccc21`, for which the TGI in test [1] is greater than 100 µM; in test [2], greater than 100 µM; in [3], greater than 100 µM; in test [10], greater than 60.3 µM; in test [4], 32.2 µM; in test [9], greater than 100 µM. Besides, the TGI was greater than 65.8 µM in [6], greater than 100 µM in [7] and greater than 80.6 µM in test [8].
For `CCN1CC2=C(OC(N)=C(C#N)C2c2ccc(Cl)cc2)/C(=C/c2ccc(Cl)cc2)C1` (configuration not stated), the TGI was greater than 100 µM in test [1]; greater than 100 µM in test [2]; greater than 100 µM in test [3]; 58.6 µM in test [10]; greater than 100 µM in test [4]; greater than 100 µM in test [9]. The TGI in [6], in test [7] and in [8] was greater than 100 µM each time.
Consider `CN(C(=O)Cc1cc(Cl)c(Cl)cc1NC(=O)CCCN)[C@H]1CCCC[C@@H]1N1CCCC1`, for which the TGI in test [1] was greater than 100 µM; in [2] it was 40.4 µM; in test [3], 33.3 µM; in test [4], 52.8 µM; in [5], greater than 100 µM; in test [9], greater than 100 µM. For the same molecule, the TGI in [7] is 37.1 µM; in [8], 40.5 µM.
On to `Cc1c2ccccc2c(=O)n2c(-c3ccccn3)cccc12`, for which the TGI in test [1], in [2], in test [3], in test [10], in [4] and in [9] was greater than 100 µM each time. Moreover, the TGI in test [6], in test [7] and in [8] was greater than 100 µM each time.
Consider `CC(C)NC1CCCCC2c3ccccc3C12O` (configuration not stated), for which the TGI in test [1], in [2], in test [3], in test [4], in [6] and in test [8] was greater than 100 µM in each case.
On to `CC(C)C(Sc1nc(-c2ccccc2)c(-c2ccccc2)[nH]1)C(=O)N/N=C/c1ccc(Cl)cc1` (configuration not stated), for which the TGI in [1] was greater than 100 µM; in test [2], 40.1 µM; in [3], 53.7 µM; in [10] it was 54.2 µM; in [4], 56.6 µM; in test [9], 48.8 µM. Besides, the TGI is 85.4 µM in [6] and 36.5 µM in [8].
Turning to `O=[N+]([O-])C(/C(Cl)=C(/Cl)N1CCOCC1)=C1\Nc2ccccc2O1`, the TGI in [2], in test [3], in [5], in test [6], in [7] and in test [8] was greater than 100 µM throughout.
For the molecule `Cc1cc(C)c2c(-c3ccccc3)cc(=O)[nH]c2c1`, the TGI in test [1], in [2], in [3], in test [4], in [5] and in [9] was greater than 100 µM each time. Further, the TGI in test [6], in test [7] and in test [8] was greater than 100 µM throughout.
For the molecule `NC(=O)N/N=C(\Cc1cc(=O)oc2cc(O)ccc12)C(=O)Nc1ccccc1C(N)=O`, the TGI in test [1], in test [2], in test [3], in test [10], in test [4] and in test [9] was greater than 100 µM each time. Besides, the TGI in test [6], in test [7] and in test [8] was greater than 100 µM throughout.
As to `CN(C)c1ccc(-c2c(C#N)c(-c3ccccc3)n(NS(=O)(=O)c3ccccc3)c(=O)c2C#N)cc1`, the TGI is greater than 100 µM in test [1]; greater than 100 µM in test [2]; greater than 100 µM in test [3]; greater than 100 µM in test [10]; greater than 100 µM in test [9]; 83.5 µM in test [6]. Moreover, the TGI in test [7] and in [8] was greater than 100 µM each time.
With `COC(=O)C12C(=O)CC3CCC1C32C(=O)OC` (configuration not stated), the TGI in [1], in [2], in test [3], in [9], in test [6] and in [7] was greater than 100 µM in each case. In addition, the TGI in test [8] was greater than 100 µM.
Take `COc1cc(OC)c(-n2[nH]c(=O)n(C)c2=O)c(OC)c1`: the TGI in [1], in test [2], in [3], in test [4], in test [5] and in test [9] was greater than 100 µM in each case. Moreover, the TGI in test [6], in test [7] and in test [8] was greater than 100 µM throughout.
As for `O=c1[nH]nc(-c2ccc3ccccc3c2)[nH]1`, the TGI in test [1], in [2], in test [3], in test [4], in test [5] and in [9] was greater than 100 µM in each case. Also, the TGI in test [6], in test [7] and in test [8] was greater than 100 µM each time.
With `CCOP(=O)(OCC)/C(C#N)=C/c1nc[nH]c1C`, the TGI in test [1], in [2], in [3], in test [10], in test [4] and in [9] was greater than 100 µM in each case. In addition, the TGI in test [6], in test [7] and in test [8] was greater than 100 µM each time.
`O=C(CN1CCCCC1)c1ccc2[nH]c(=O)oc2c1`: the TGI in [1], in test [2], in test [3], in [4], in [9] and in [6] was greater than 100 µM in each case. Further, the TGI in test [8] was greater than 100 µM.
Turning to `COc1cc(O)c2c(=O)c3cccc(C)c3[nH]c2c1`, the TGI in [1], in test [2], in test [3], in [4], in [5] and in test [9] was greater than 10 µM each time. Also, the TGI in test [6], in [7] and in test [8] was greater than 10 µM in each case.
